Entries after “also recorded” stand apart in the source; their conditions may differ. Read-outs that look alike come from different tables or passages of the source. Ends that are not written are not given here. Where only a bound is given, the exact number is not on record here.

Results on 2 substances are retold here after US8642656B2, “Calixarene-based peptide conformation mimetics, methods of use, and methods of making” (priority 2004, dated 2014).

Data set [1] concerns LPS from E. coli serotype 0111:B4. Put plainly: LPS neutralization assay (Limulus amoebocyte lysate, QCL-1000). It counts as biochemical. To be noted: read-out: IC50 values (μM) for LPS binding, E. coli 0111:B4. In a few lines: (§1)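 LPS (0.04 units per strain) is mixed with compound and Limulus amoebocyte lysate. Proenzyme activation is then followed by chromogenic substrate cleavage and pNA absorbance at 405-410 nm. Dose-response curves are fit sigmoidally to give IC50.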

Data set [2] relates to LPS from E. coli serotype 055:B5. Described as above. It counts as biochemical. The method in brief: as §1
A further data set deals with LPS from P. aeruginosa. The description is as above. It counts as biochemical, Pseudomonas aeruginosa. The following applies: read-out: IC50 values (μM) for LPS binding, P.a. The method in brief: as §1
The test system of the next data set is LPS from K. pneumoniae. The description is as above. The format is biochemical, Klebsiella pneumoniae. The following applies: read-out: IC50 values (μM) for LPS binding, Klebsiella. The method in brief: as §1
For the next data set, the system named is LPS from S. typhimurium. Described as above. It counts as biochemical, Salmonella typhimurium. To be noted: read-out: IC50 values (μM) for LPS binding, Salmonella. The method in brief: as §1
Another data set concerns LPS from S. marcascens. Described as above. To be noted: read-out: IC50 values (μM) for LPS binding, Serratia. The format is biochemical, Serratia marcascens. The method in brief: as §1
In data set [3] the test system is LPS from six species of bacteria. Kind of data set: LPS neutralization assay, overall statements. The format is biochemical. The following applies: library of 23 compounds. The source says: The ability of compounds to neutralize endotoxin was detected in vitro by using the chromogenic QCL-1000 kit from BioWhittaker, Inc. (Walkersville, Md.), and as described in their protocol. This Limulus amoebocyte lysate (LAL) assay is quantitative for Gram negative bacterial endotoxin (lipopolysaccharide, LPS). In this assay compounds that are active inhibit the LPS-mediated activation of a proenzyme whose active form would release p-nitroaniline (pNA) from a colorless synthetic substrate producing a yellow color (pNA) whose absorption is monitored spectrophotometrically at 405-410 nm. The initial rate of enzyme activation is proportional to the concentration of endotoxin present.
Variants of LPS from six Gram negative bacteria were used: E. coli serotypes 0111:B4 (Combrex, Walkersville, Md.) and 055:B5 (Sigma, St. Louis, Mo.); Klebsiella pneumoniae (List Biologies, San Jose, Calif.); Pseudomonas aeruginosa (List Biologies, San Jose, Calif.); Salmonella typhimurium (List Biologies, San Jose, Calif.), and Serratia marcascens (List Biologies, San Jose, Calif.). The concentration of compound required to neutralize a given LPS and therefore to inhibit the Limulus amoebocyte lysate driven by 0.04 units of any given LPS was determined by dose response curves fit by using a standard sigmoidal function to determined the JC50 value for each lopomimetic compound. […]

For a further data set, the system named is LPS from E. coli 055:B5. Kind of data set: Endotoxemia study in mice, lethal dose of E. coli 055:B5 LPS. It counts as in vivo. The following applies: E. coli 055:B5 LPS 600 μg; 5 mg/kg. Here is the method: In three separate studies, these compounds were tested against LPS derived from E. coli serotype 0111:B4, E. coli serotype 055:B5 LPS, and Salmonella. The compounds (in a final concentration of 2% DMSO v/v), were first mixed individually with LPS, and incubated for 30 minutes prior to i.p. injection into C57/BL6 mice (n=4-8/group). The control mice were treated with DMSO (2% v/v) alone. Each mouse received a lethal dose of LPS, with or without one of the compounds.
(§2) J Bacteriol 93, 1463-4 (1967)). Mice were provided food and water as usual ad libitum, and monitored for several days. When it was observed that mice were in distress and death was imminent, animals were sacrificed; in some cases, mice expired during the night and were found dead the following morning. Data are plotted as the number of surviving mice versus lime in hours. Statistical analysis was performed on the average amount of survival time per group with a maximum or 120 hours (surviving mice) by using the Student's t-test.

Data set [4] in a line: Acute toxicity observed in the endotoxemia model. It counts as in vivo, mice. The following applies: i.p., single dose of 50 mg/kg, together with LPS. The protocol:
as §2, with “C57 male black mice were injected i.p. with a solution that contained a lethal dose of LPS [600 μg of LPS from E. coli 055:B5 and Salmonella, and 500 μg of LPS from […]] and 1.25 mg of the lopomimetic compound (a dose of 50 mg/kg) (Rifkind, D. J” for “J”

The subject of another data set is fibroblasts. Kind of data set: Proliferation of fibroblasts (general cell toxicity check). It counts as cell-based.
The subject of another data set is B16F10 tumor cells. Put plainly: Proliferation of B16F10 tumor cells. It counts as cell-based, murine.
Another data set concerns MA148 tumor vessels. Kind of data set: Histological analysis of microvessel density, anti-CD31 staining, MA148 tumors. It counts as in vivo, mice. To be noted: MA148, 10 mg/kg; mean ± standard error, 20 images. The protocol: (§3) Immunohistochemistry was used to assess microvessel density and the extent of total cell apoptosis. Approximately, tumors of the same size and with no apparent necrosis were selected for processing. On the last day of treatment mice were sacrificed and tumors were excised. Tumor tissue was embedded in tissue freezing medium (Miles Inc, Elkart, Ind.) and shock frozen in liquid nitrogen. Sections of tissue (10 μm thickness) were prepared for immunohistochemical analysis. For this, tissue sections were brought to room temperature, air dried overnight, and then fixed in acetone for 10 minutes. Slides were allowed to air dry for at least 30 minutes and were washed three limes for 5 minutes each in phosphate-buffered saline (PBS, pH 7.4). Samples were then blocked with PBS containing 0.1% bovine serum albumin and 3% human serum albumin for at least 30 minutes at room temperature in a humidified box. Samples were subsequently incubated with phycoerytrin (PE)-conjugated monoclonal antibody to CD31 (PECAM-1) in a 1:50 dilution (Pharmigen, San Diego, Calif.) to stain for microvessel density.
(§4) Digital images were stored and processed using Adobe Photoshop (Adobe Inc., Mountain View Calif.). Quantification of microvessel density, were determined as described previously (Dings et al., Cancer Res 63, 382-385 (2003)). Statistical analysis was performed using the Student's t-test.

The next data set concerns MA148 tumor. Kind of data set: TUNEL staining for total cell apoptosis, MA148 tumors. It counts as in vivo, mice. To be noted: MA148, 10 mg/kg; mean ± standard error, 20 images. Here is the method: (§5) To assess the extent of total cell apoptosis, tumor tissue sections were stained by using the TUNEL (terminal deoxyribonucleotidyl transferase-mediated dUTP-nick-end labeling) assay, which was performed according to the manufacturer's instructions (In situ cell death detection kit, fluorescein; TUNEL, Roche). After 1-hour incubation at room temperature, slides were washed with PBS and immediately imaged using an Olympus BX-60 fluorescence microscope at 200× magnification.

The test system of a further data set is B16F10 tumor vessels. Kind of data set: Histological analysis of microvessel density, anti-CD31 staining, B16F10 tumors. It counts as in vivo, mice. The following applies: B16F10, 10 mg/kg; mean ± standard error, 20 images. Here is the method: as §3, §4
A further data set deals with B16F10 tumor. Put plainly: TUNEL staining for total cell apoptosis, B16F10 tumors. The format is in vivo, mice. The following applies: B16F10, 10 mg/kg; mean ± standard error, 20 images. Here is the method: as §5
A short description of data set [5]: Toxicity assays in tumor-bearing mice: behavior, body weight, organ morphology. To be noted: all in vivo tumor experiments. It counts as in vivo. The protocol: (§6) As an indirect measurement of general toxicity, body weights of mice were monitored twice weekly, using a digital balance (Ohaus Florham, N.J.). To determine hematocrit levels, blood samples were extracted by tail vein bleedings one day after terminating treatment, and blood was collected in heparinized micro-hematocrit capillary lubes (Fisher Pittsburgh, Pa.). Samples were spun down for 10 minutes in a micro-hematocrit centrifuge (Clay-Adams; NY), and the amount of hematocrit was determined using an international microcapillary reader (IEC; Needham, Mass.).

Data set [6] in a line: Hematocrit levels, first (MA148) study. It counts as in vivo, mice. The following applies: 10 mg/kg; last day of treatment; vehicle 47±5.7. Here is the method:
as §6

The nature of data set [7]: Hematocrit levels, study with B16 tumors in immune competent mice. It counts as in vivo. To be noted: vehicle 51±1.4. Here is the method:
as §6

Data set [8] has as its system MA148 human ovarian carcinoma. To be noted: 10 mg/kg/day; Dings et al., Cancer Lett 194; cited from earlier work.
Setting [9] is: Table 2, read-out: IC50 values (μM) for LPS binding, E. coli 055:B4.
Where [10] appears, read: Table 3, errors estimated ±30%, read-out: IC50 values (μM) for LPS binding, E. coli 055:B5.

In the case of “5,11,17,23-Tetra-tert-butyl-25,26,27,28-tetrakis(4-guanidinobutoxy) calix[4]arene trifloroacetic acid salt [Compound 42]”, the IC50 in data set [1] (Table 2) is 0.7 µM; in data set [1] (Table 3, errors estimated ±30%), 0.7 µM; in data set [2] (setting [9]), 0.04 µM; in [2] (setting [10]) it was 0.04 µM; in the data set on LPS from P. aeruginosa (Table 2) it was 1.5 µM; in the data set with LPS from P. aeruginosa (Table 3, errors estimated ±30%), 1.5 µM. The IC50 with LPS from K. pneumoniae (Table 2) was 1 µM; with LPS from K. pneumoniae (Table 3, errors estimated ±30%) it was 1 µM; in the data set with LPS from S. typhimurium (Table 2), 0.6 µM; with LPS from S. typhimurium (Table 3, errors estimated ±30%) it was 0.6 µM; with LPS from S. marcascens (Table 2) it was more than 5 µM; with LPS from S. marcascens (Table 3, errors estimated ±30%), more than 5 µM. Moreover, the “neutralizing LPS, ranking in words” value in data set [3] is reported as “best LPS neutralizing compounds; also recorded: most effective for neutralizing LPS”. In addition, in the data set on LPS from E. coli 055:B5, the “survival of LPS-challenged mice” value is “ineffective”. For the same substance, the “sign of acute toxicity” value in [4] was “did not demonstrate any sign of acute toxicity”.
For “ANIKLSVQMKLFKRHLKWKIIVKLNDGRELSLD [βpep-25, reference compound]”, the IC50 is 2 µM in data set [1] (Table 2); 2 µM in [1] (Table 3, errors estimated ±30%); 2.5 µM in [2] (setting [9]); 2.5 µM in [2] (setting [10]); 1.2 µM in the data set with LPS from P. aeruginosa (Table 2); 1.2 µM in the data set on LPS from P. aeruginosa (Table 3, errors estimated ±30%). For the same substance, the half-maximal inhibitory concentration (IC50) was 2 µM in the data set with LPS from K. pneumoniae (Table 2); 2 µM in the data set on LPS from K. pneumoniae (Table 3, errors estimated ±30%); 2.5 µM with LPS from S. typhimurium (Table 2); 2.5 µM in the data set with LPS from S. typhimurium (Table 3, errors estimated ±30%); 4.1 µM with LPS from S. marcascens (Table 2); 4.1 µM with LPS from S. marcascens (Table 3, errors estimated ±30%). Besides, the “concentration giving 50% growth inhibition, fibroblasts” value in the data set on fibroblasts was “no delectable effects”. In addition, the “IC50 against B16F10 tumor cells” value with B16F10 tumor cells is “neither demonstrated activity”. The “Branch Points” value was 2.0 ± 0.5 pixel counts per image with MA148 tumor vessels and 4.5 ± 0.6 pixel counts per image with B16F10 tumor vessels. Moreover, the “End Points” value in the data set with MA148 tumor vessels turned out to be 16.6 ± 1.8 pixel counts per image; in the data set with B16F10 tumor vessels it was 31.9 ± 3.8 pixel counts per image. The “Vessel Density” value is 7415 ± 686 pixel counts per image in the data set with MA148 tumor vessels and 14050 ± 1826 pixel counts per image in the data set on B16F10 tumor vessels. Moreover, the “Vessel Length” value in the data set with MA148 tumor vessels worked out at 4.9 ± 0.6 pixel counts per image; in the data set with B16F10 tumor vessels, 10.2 ± 1.2 pixel counts per image. Further, the figures for the Apoptosis with MA148 tumor and in the data set on B16F10 tumor were 2418 ± 77 pixel counts per image and 3303 ± 606 pixel counts per image, respectively. The “signs of toxicity (behavior, weight gain, hematocrit), in words” value in [5] is listed as “did not generally show signs of toxicity”. In addition, the results for the “Hematocrit levels ±SD” value in data set [6] and in [7] were 47±2.8 percentage of red blood cells and 52.5±3.5 percentage red blood cells, respectively. The “MA148 tumor inhibition shown previously” value in data set [8] is on record as 60 to 70%.

By IC50 is commonly meant the concentration at which inhibition is half-maximal.
